Assay results: patent publication US20250163104A1, “MACROCYCLIC IMMUNOMODULATORS” (priority 2021, published 2025)
Where a SMILES comes first, the peptide text is derived from it. Bridges are numbered along the chain shown (N, C = ends). [ ]: non-standard residue; d: D form. The star is where a group is joined. ξ: configuration not given here. Phe(4-COOH) = N[C@@H](Cc1ccc(C(=O)O)cc1)C(=O)O; Bip = N[C@@H](Cc1ccc(-c2ccccc2)cc1)C(=O)O; Phe(4-CN) = N#Cc1ccc(C[C@H](N)C(=O)O)cc1; Phe(3-Me) = Cc1cccc(C[C@H](N)C(=O)O)c1; 2Nal = N[C@@H](Cc1ccc2ccccc2c1)C(=O)O; Val(3-OH) = CC(C)(O)[C@H](N)C(=O)O; Benzoyl(4-F) = O=C(c1ccc(F)cc1)*; 4Pal = N[C@@H](Cc1ccncc1)C(=O)O; Cha = N[C@@H](CC1CCCCC1)C(=O)O; Cit = NC(=O)NCCC[C@H](N)C(=O)O; Thr(3ξ) = CC(O)[C@H](N)C(=O)O; Tle = CC(C)(C)[C@H](N)C(=O)O; Carboxymethyl = O=C(O)C*; Nle = CCCC[C@H](N)C(=O)O; Orn = NCCC[C@H](N)C(=O)O; Dab = NCC[C@H](N)C(=O)O; Dap = NC[C@H](N)C(=O)O; Propargyl = C#CC*

Molecular target: T1, human PD-1 / PD-L1-Ig binding on Jurkat cell line over-expressing human PD-1 (Jurkat-PD-1) (Homo sapiens, UniProt Q15116)
T1 construct: expressed in transfected cells; host or cells: Jurkat
Experiment: Jurkat-PD-1 Cell Binding High-Content Screening Assay (CBA)
Assay type: cell-based
Conditions: Jurkat-PD-1 cells, PE-labeled PD-L1-Ig 20 nM final; read-out: Jurkat HPD1_PDL1 IC50
Outline: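 Cell-bound PE-labeled PD-L1-Ig (20 nM final, 1 h) measured by high-content imaging after fixation and Hoechst 33342 counterstain. Compound was applied first for 2 h at 37° C. to Jurkat cells over-expressing human PD-1 in DMEM with 10% FCS.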

T1 sequence (Q15116 25-288): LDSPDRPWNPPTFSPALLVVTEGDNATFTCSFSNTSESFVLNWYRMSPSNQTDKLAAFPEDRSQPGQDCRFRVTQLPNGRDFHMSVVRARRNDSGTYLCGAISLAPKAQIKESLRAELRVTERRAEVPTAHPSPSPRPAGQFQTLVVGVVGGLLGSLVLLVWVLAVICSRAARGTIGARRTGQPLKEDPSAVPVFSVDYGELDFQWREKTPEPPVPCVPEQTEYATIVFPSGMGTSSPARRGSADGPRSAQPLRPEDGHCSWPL

Row | Structure (SMILES) | IC50
1 | CC(C)C[C@@H]1NC(=O)[C@H](Cc2c[nH]c3ccccc23)NC(=O)[C@H](CC(=O)O)NC(=O)[C@H](Cc2ccc(O)cc2)NC(=O)[C@H](Cc2ccccc2)NC(=O)CSC[C@@H](C(=O)N[C@@H](C)C(N)=O)NC(=O)[C@H](CO)NC(=O)[C@H](C(C)C)NC(=O)[C@H](CC(C)C)NC(=O)[C@H](CC(N)=O)NC(=O)[C@@H](CC(C)C)NC(=O)[C@H](CCCN)NC(=O)[C@H](CCC(=O)O)NC(=O)[C@H](Cc2ccc(-c3ccccc3)cc2)NC1=O [Compound 1235] ({CH2CO}-FYDWL[Bip]E[Orn][dL]NLVSCA-NH2; thioether N-14) | 0.021 µM
2 | Cc1cccc(C[C@@H]2NC(=O)[C@H](CC(=O)O)NC(=O)[C@H](Cc3ccc(OCC(=O)O)cc3)NC(=O)[C@H](CN)NC(=O)CSC[C@@H](C(=O)N[C@@H](C)C(=O)N[C@@H](CCC(=O)O)C(N)=O)NC(=O)[C@H]([C@@H](C)O)NC(=O)[C@H](C(C)C)NC(=O)[C@H](CC3CCCCC3)NC(=O)[C@H](CCN)NC(=O)[C@@H](CC(C)C)NC(=O)[C@H](CCCN)NC(=O)[C@H](CCCNC(N)=O)NC(=O)[C@H](Cc3ccc(-c4ccccc4)cc3)NC(=O)[C@H](C(C)C)NC2=O)c1 [Compound 1296] ({CH2CO}-[Dap]Y(Carboxymethyl)D[Phe(3-Me)]V[Bip][Cit][Orn][dL][Dab][Cha]VTCAE-NH2; thioether N-14) | 0.0135 µM
3 | CC(C)C[C@H]1NC(=O)[C@H](CCCN)NC(=O)[C@H](CCC(=O)O)NC(=O)[C@H](Cc2ccc(-c3ccccc3)cc2)NC(=O)[C@H](C(C)C)NC(=O)[C@H](Cc2ccc3ccccc3c2)NC(=O)[C@H](CC(=O)O)NC(=O)[C@H](Cc2ccc(OCC(=O)O)cc2)NC(=O)[C@H](CN)NC(=O)CSC[C@@H](C(=O)N[C@@H](C)C(N)=O)NC(=O)[C@H]([C@@H](C)O)NC(=O)[C@H](C(C)C)NC(=O)[C@H](CC2CCCCC2)NC(=O)[C@H](CCN)NC1=O [Compound 2142] ({CH2CO}-[Dap]Y(Carboxymethyl)D[2Nal]V[Bip]E[Orn][dL][Dab][Cha]VTCA-NH2; thioether N-14) | 0.543 µM
4 | CCCC[C@@H]1NC(=O)[C@H](CC(N)=O)NC(=O)[C@@H](CC(C)C)NC(=O)[C@H](CCCN)NC(=O)[C@H](C(C)C)NC(=O)[C@H](Cc2ccc(-c3ccccc3)cc2)NC(=O)[C@H](CC(C)C)NC(=O)[C@H](Cc2c[nH]c3ccccc23)NC(=O)[C@H](CC(=O)O)NC(=O)[C@H](Cc2ccncc2)NC(=O)[C@H](Cc2ccc(OCC(=O)O)cc2)NC(=O)CSC[C@@H](C(=O)NCC(N)=O)NC(=O)[C@H](CO)NC(=O)[C@H](C(C)C)NC1=O [Compound 1343] ({CH2CO}-Y(Carboxymethyl)[4Pal]DWL[Bip]V[Orn][dL]N[Nle]VSCG-NH2; thioether N-14) | 0.0299 µM
5 | Cc1cccc(C[C@@H]2NC(=O)[C@H](CC(=O)O)NC(=O)[C@H](Cc3ccc(OCC(=O)O)cc3)NC(=O)[C@H](CCNC(=O)c3ccc(F)cc3)NC(=O)CSC[C@@H](C(N)=O)NC(=O)[C@H]([C@@H](C)O)NC(=O)[C@H](C(C)C)NC(=O)[C@H](CC3CCCCC3)NC(=O)[C@H](CCN)NC(=O)[C@@H](CC(C)C)NC(=O)[C@H](CCCN)NC(=O)[C@H](Cc3ccc(OCC(=O)O)cc3)NC(=O)[C@H](Cc3ccc(-c4ccccc4)cc3)NC(=O)[C@H](Cc3ccc(O)cc3)NC2=O)c1 [Compound 2049] ({CH2CO}-[Dab](Benzoyl(4-F))Y(Carboxymethyl)D[Phe(3-Me)]Y[Bip]Y(Carboxymethyl)[Orn][dL][Dab][Cha]VTC-NH2; thioether N-14) | 0.0793 µM
6 | CC(C)C[C@H]1NC(=O)[C@H](CCCN)NC(=O)[C@H](CCCNC(N)=O)NC(=O)[C@H](Cc2ccc(-c3ccccc3)cc2)NC(=O)[C@H](C(C)(C)C)NC(=O)[C@H](Cc2c[nH]c3ccccc23)NC(=O)[C@H](CC(=O)O)NC(=O)[C@H](Cc2ccc(OCC(=O)O)cc2)NC(=O)[C@H](CN)NC(=O)CSC[C@@H](C(=O)N[C@@H](C)C(N)=O)NC(=O)[C@H]([C@@H](C)O)NC(=O)[C@H](C(C)C)NC(=O)[C@H](CC2CCCCC2)NC(=O)[C@H](CCN)NC1=O [Compound 1362] ({CH2CO}-[Dap]Y(Carboxymethyl)DW[Tle][Bip][Cit][Orn][dL][Dab][Cha]VTCA-NH2; thioether N-14) | 0.0529 µM
7 | CC(C)C[C@@H]1NC(=O)[C@H](Cc2c[nH]c3ccccc23)NC(=O)[C@H](CC(=O)O)NC(=O)[C@H](Cc2ccc(OCC(=O)O)cc2)NC(=O)[C@H](C(C)O)NC(=O)CSC[C@@H](C(N)=O)NC(=O)[C@H](CO)NC(=O)[C@H](C(C)C)NC(=O)[C@H](CC2CCCCC2)NC(=O)[C@H](CCC(=O)O)NC(=O)[C@@H](CC(C)C)NC(=O)[C@H](Cc2cnc[nH]2)NC(=O)[C@H](C(C)C)NC(=O)[C@H](Cc2ccc(-c3ccccc3)cc2)NC1=O (stereo partly drawn) [Compound 2610] ({CH2CO}-[Thr(3ξ)]Y(Carboxymethyl)DWL[Bip]VH[dL]E[Cha]VSC-NH2; thioether N-14) | 0.0783 µM
8 | CC(C)C[C@H]1NC(=O)[C@H](CCCN)NC(=O)[C@H](C(C)C)NC(=O)[C@H](Cc2ccc(-c3ccccc3)cc2)NC(=O)[C@H](C(C)C)NC(=O)[C@H](Cc2c[nH]c3ccccc23)NC(=O)[C@H](CC(=O)O)NC(=O)[C@H](Cc2ccc(OCC(=O)O)cc2)NC(=O)[C@H](CN)NC(=O)CSC[C@@H](C(=O)N[C@@H](C)C(N)=O)NC(=O)[C@H]([C@@H](C)O)NC(=O)[C@H](C(C)C)NC(=O)[C@H](CC2CCCCC2)NC(=O)[C@H](CC(=O)O)NC1=O [Compound 1521] ({CH2CO}-[Dap]Y(Carboxymethyl)DWV[Bip]V[Orn][dL]D[Cha]VTCA-NH2; thioether N-14) | 0.0177 µM
9 | CC(C)C[C@H]1NC(=O)[C@H](CCCN)NC(=O)CNC(=O)[C@H](Cc2ccc(-c3ccccc3)cc2)NC(=O)[C@H](C(C)C)NC(=O)[C@H](Cc2c[nH]c3ccccc23)NC(=O)[C@H](CC(=O)O)NC(=O)[C@H](Cc2ccc(OCC(=O)O)cc2)NC(=O)[C@H](C(C)O)NC(=O)CSC[C@@H](C(=O)N[C@@H](CC(N)=O)C(N)=O)NC(=O)[C@H](CO)NC(=O)[C@H](C(C)C)NC(=O)[C@H](CC2CCCCC2)NC(=O)[C@H](CCN)NC1=O (stereo partly drawn) [Compound 2566] ({CH2CO}-[Thr(3ξ)]Y(Carboxymethyl)DWV[Bip]G[Orn][dL][Dab][Cha]VSCN-NH2; thioether N-14) | 0.121 µM

Now those with a lower IC50, led by results:

Row | IC50 | Structure (SMILES)
10 | 0.008 µM | CC(C)C[C@H]1NC(=O)[C@H](CCCN)NC(=O)[C@H](CCC(=O)O)NC(=O)[C@H](Cc2ccc(-c3ccccc3)cc2)NC(=O)[C@H](C(C)C)NC(=O)[C@H](Cc2c[nH]c3ccccc23)NC(=O)[C@H](CC(=O)O)NC(=O)[C@H](Cc2ccc(-c3cccc(C(=O)O)c3)cc2)NC(=O)[C@H](Cc2ccncc2)NC(=O)CSC[C@@H](C(=O)N[C@@H](C)C(N)=O)NC(=O)[C@H]([C@@H](C)O)NC(=O)[C@H](C(C)C)NC(=O)[C@H](CC2CCCCC2)NC(=O)[C@H](CCN)NC1=O [Compound 2164]
11 | 0.0064 µM | C#CCOc1ccc(C[C@@H]2NC(=O)[C@H](Cc3ccc(-c4ccccc4)cc3)NC(=O)[C@H](Cc3ccc(C(=O)O)cc3)NC(=O)[C@H](Cc3cccc(C)c3)NC(=O)[C@H](CC(=O)O)NC(=O)[C@H](Cc3ccc(C(=O)O)cc3)NC(=O)[C@H](CCCC)NC(=O)CSC[C@@H](C(=O)N[C@@H](CCN)C(N)=O)NC(=O)[C@H](CCC(=O)O)NC(=O)[C@H](C(C)C)NC(=O)[C@H](CC3CCCCC3)NC(=O)[C@H](CCN)NC(=O)[C@@H](CC(C)C)NC(=O)[C@H](CCCN)NC2=O)cc1 [Compound 1835] ({CH2CO}-[Nle][Phe(4-COOH)]D[Phe(3-Me)][Phe(4-COOH)][Bip]Y(Propargyl)[Orn][dL][Dab][Cha]VEC[Dab]-NH2; thioether N-14)
12 | 0.0062 µM | Cc1cccc(C[C@@H]2NC(=O)[C@H](CC(=O)O)NC(=O)[C@H](Cc3ccc(OCC(=O)O)cc3)NC(=O)[C@H](Cc3ccncc3)NC(=O)CSC[C@@H](C(=O)N[C@@H](C)C(N)=O)NC(=O)[C@H]([C@@H](C)O)NC(=O)[C@H](C(C)C)NC(=O)[C@H](CC(C)C)NC(=O)[C@H](CCN)NC(=O)[C@@H](CC(C)C)NC(=O)[C@H](CCCN)NC(=O)[C@H](CCCNC(N)=O)NC(=O)[C@H](Cc3ccc(-c4ccccc4)cc3)NC(=O)[C@H](C(C)C)NC2=O)c1 [Compound 1184] ({CH2CO}-[4Pal]Y(Carboxymethyl)D[Phe(3-Me)]V[Bip][Cit][Orn][dL][Dab]LVTCA-NH2; thioether N-14)
13 | 0.0096 µM | CC(C)C[C@H]1NC(=O)[C@H](CCCN)NC(=O)[C@H](C(C)C)NC(=O)[C@H](Cc2ccc(-c3ccccc3)cc2)NC(=O)[C@H](C(C)C)NC(=O)[C@H](Cc2c[nH]c3ccccc23)NC(=O)[C@H](CC(=O)O)NC(=O)[C@H](Cc2ccc(OCC(=O)O)cc2)NC(=O)[C@@H]2CC(N)CN2C(=O)CSC[C@@H](C(=O)N[C@@H](C)C(N)=O)NC(=O)[C@H](C(C)O)NC(=O)[C@H](C(C)C)NC(=O)[C@H](CC2CCCCC2)NC(=O)[C@H](CCN)NC1=O (stereo partly drawn) [Compound 2523]
14 | 0.0058 µM | Cc1cccc(C[C@@H]2NC(=O)[C@H](CC(=O)O)NC(=O)[C@H](Cc3ccc(C#N)cc3)NC(=O)[C@H](C(C)O)NC(=O)CSC[C@@H](C(=O)N[C@@H](CCN)C(N)=O)NC(=O)[C@H](Cc3c[nH]cn3)NC(=O)[C@H](C(C)(C)O)NC(=O)[C@H](CC3CCCCC3)NC(=O)[C@H](CCN)NC(=O)[C@@H](CC(C)C)NC(=O)[C@H](CCCN)NC(=O)[C@H](Cc3ccc(OCC(=O)O)cc3)NC(=O)[C@H](Cc3ccc(-c4ccccc4)cc3)NC(=O)[C@H](Cc3ccc(OCC(=O)O)cc3)NC2=O)c1 (stereo partly drawn) [Compound 2673] ({CH2CO}-[Thr(3ξ)][Phe(4-CN)]D[Phe(3-Me)]Y(Carboxymethyl)[Bip]Y(Carboxymethyl)[Orn][dL][Dab][Cha][Val(3-OH)]HC[Dab]-NH2; thioether N-14)
15 | 0.0092 µM | CC(C)C[C@H]1NC(=O)[C@H](CCCN)NC(=O)[C@H](C(C)C)NC(=O)[C@H](Cc2ccc(-c3ccccc3)cc2)NC(=O)[C@H](C(C)C)NC(=O)[C@H](Cc2c[nH]c3ccccc23)NC(=O)[C@H](CC(=O)O)NC(=O)[C@H](Cc2ccc(OCC(=O)O)cc2)NC(=O)[C@H](CN)NC(=O)CSC[C@@H](C(=O)N[C@@H](C)C(N)=O)NC(=O)[C@H]([C@@H](C)O)NC(=O)[C@H](C(C)C)NC(=O)[C@H](CC2CCCCC2)NC(=O)[C@H]([C@@H](C)O)NC1=O [Compound 1524] ({CH2CO}-[Dap]Y(Carboxymethyl)DWV[Bip]V[Orn][dL]T[Cha]VTCA-NH2; thioether N-14)
